Experimental data as given in US11000509B2, “Methods and compositions for daily ophthalmic administration of phentolamine to improve visual performance” (Ocuphire Pharma, Inc., priority 2013, dated 2021).
Where “and” joins values, the source holds several entries; their conditions need not be identical. Equal entries are not always repeated. Structures can show the parent of a compound that is named as a salt. Where two headings read alike, the source gives them in different places. Marks after values point to notes of the source that are not given here.

Legend:
[1] = system: eyes of patients with pupil size in dim light of greater than 7 mm; assay: Example 2 clinical study: pupil diameter by NeurOptics pupilometer; one drop oxymetazoline (Visine LR) then one drop test article in Tears Naturale II in each eye; type: in vivo, humans; settings: for Range of pupil diameters: immediately prior to administration
Experimental: (§1) Sixteen patients were randomized into four groups (of four subjects each). Each group was treated on three successive study visits separated by at least 4 days with one drop of ophthalmic oxymetazoline solution (Visine LR®) in each eye followed by one drop test article in each eye. The test article was a 0.2% (w/v) phentolamine mesylate solution, 0.4% (w/v) phentolamine mesylate solution, 0.8% (w/v) phentolamine mesylate solution, or placebo. Test articles contained the designed amount of phentolamine mesylate in a solution of Tears Naturale II® (from Alcon Labs). Placebo was just Tears Naturale II® (from Alcon Labs). Tears Naturale II® (from Alcon Labs) contains Dextran 70 (0.1% by weight), Hydroxypropyl Methylcellulose 2910 (0.3% by weight), Polyquarternium-1 (0.001% by weight), potassium chloride, water (purified), sodium borate, sodium chloride, and hydrochloric acid and/or sodium hydroxide as necessary to adjust the pH. The patients' eye redness and pupil diameters were recorded at baseline (i.e., prior to treatment administration), and at 30 minutes, 1 hour, 2 hours, 4 hours, and 8 hours after administration of test articles. The incidence of any treatment-emergent adverse events was also recorded. Total study duration was approximately nine hours.
(§2) Eye redness of patients' eyes was evaluated by the research assistant and recorded as a single integer of value 0 (no redness) to 4 (extreme redness) at baseline and each time point after treatment. Pupil diameters were measured to within 0.1 mm for each eye at baseline and each subsequent time point using a NeurOptics™ pupilometer. Monocular high contrast visual acuity was measured for each eye under photopic conditions at baseline and each subsequent time point in a darkened room using a Precision Vision™ High Contrast (100% tint) Visual Acuity Chart (Catalog #2102) backlit by the Precision Vision Illumination Box. Monocular low contrast visual acuity was measured for each eye under photopic conditions at baseline and each subsequent time point in a darkened room using a Precision Vision™ Low Contrast (5% tint) Visual Acuity Chart (Catalog #2186) backlit by the Precision Vision Illumination Box. Effect of treatment on glare was assessed using an experimental test method consisting of a panel with a high wattage central light emitting diode (LED) and a set of 7 lower wattage red LEDs radiating horizontally and vertically from the central light.
Comparisons of changes in mean values within treatment groups were tested for significance using two-tailed paired two sample t-tests with a threshold for significance set at p<0.01 (Bonferroni Correction for multiple paired t-tests). Differences between treatment groups with respect to mean values for pupil size over the course of the study were tested for significance using repeated measure ANOVA (which discards data from subjects lacking any data points). Differences in mean eye redness between treatment groups were evaluated using Kruskal-Wallis nonparametric testing. Differences in means between treatment groups at individual time points were tested for significance using one-way ANOVA.

[2] = system: eyes of patients with pupil size in dim light of greater than 7 mm; design: species or system humans; settings: human, in vivo
Experimental: as §1, §2
Comparisons of changes in mean values within treatment groups were tested for significance using two-tailed paired two sample t-tests with a threshold for significance set at p<0.01 (Bonferroni Correction for multiple paired t-tests). […] Differences in mean eye redness between treatment groups were evaluated using Kruskal-Wallis nonparametric testing. […]

[3] = 0.2% (w/v) solution, 30 min after treatment
[4] = 0.2% (w/v) solution, 1 hour after treatment
[5] = 0.2% (w/v) solution, 2 hours after treatment
[6] = 0.2% (w/v) solution, 4 hours after treatment
[7] = 0.2% (w/v) solution, 8 hours after treatment
[8] = 0.2% (w/v) solution, Baseline, prior to treatment
[9] = 0.4% (w/v) solution, 30 min after treatment
[10] = 0.4% (w/v) solution, 1 hour after treatment
[11] = 0.4% (w/v) solution, 2 hours after treatment
[12] = 0.4% (w/v) solution, 4 hours after treatment
[13] = 0.4% (w/v) solution, 8 hours after treatment
[14] = 0.4% (w/v) solution, Baseline, prior to treatment
[15] = 0.8% (w/v) solution, 30 min after treatment
[16] = 0.8% (w/v) solution, 1 hour after treatment
[17] = 0.8% (w/v) solution, 2 hours after treatment
[18] = 0.8% (w/v) solution, 4 hours after treatment
[19] = 0.8% (w/v) solution, 8 hours after treatment
[20] = 0.8% (w/v) solution, Baseline, prior to treatment

Cc1ccc(N(CC2=NCCN2)c2cccc(O)c2)cc1 [Phentolamine Mesylate, phentolamine mesylate] was tested, and the Maximum pupil diameter [1, 3] was 9.2 mm, the “Mean change in pupil diameter from baseline” value (from here on “Mean change in pupil diameter”) [1, 3] was −0.04 mm and the Mean pupil diameter [1, 3] was 7.74 mm. For the same compound, the Minimum pupil diameter [1, 3] was 5.1 mm, the Maximum pupil diameter [1, 4] was 8.9 mm and the “Mean change in pupil diameter” value [1, 4] was −0.24 mm. It also gave a Mean pupil diameter [1, 4] of 7.54 mm, a Minimum pupil diameter [1, 4] of 4.9 mm and a Maximum pupil diameter [1, 5] of 8.4 mm. For the same compound, the “Mean change in pupil diameter” value [1, 5] was −0.75 mm, the Mean pupil diameter [1, 5] was 7.01^c mm and the Minimum pupil diameter [1, 5] was 4.7 mm. The Maximum pupil diameter [1, 6] was 8.0 mm, the “Mean change in pupil diameter” value [1, 6] was −0.69 mm and the Mean pupil diameter [1, 6] was 7.30^d mm. The Minimum pupil diameter [1, 6] was 6.3 mm, the Maximum pupil diameter [1, 7] was 8.5 mm and the “Mean change in pupil diameter” value [1, 7] was −0.59 mm. The Mean pupil diameter [1, 7] was 7.18 mm, the Minimum pupil diameter [1, 7] was 4.7 mm and the “Range of pupil diameters” value ([1]; 0.2% (w/v) solution, Baseline) was 5.2-8.8 mm. For the same compound, the Maximum pupil diameter [1, 8] was 8.8 mm, the Mean pupil diameter [1, 8] was 7.8 mm and 7.78 mm and the Minimum pupil diameter [1, 8] was 5.2 mm. For the same compound, the “change from baseline in mean pupil diameter, significance” value ([1]; 0.2%, 0.4% and 0.8% (w/v), by one hour post treatment, p<0.01) was “significant”, the “mean pupil diameter between different doses” value ([1]; 0.2%, 0.4%, 0.8% (w/v), any time point) was “no statistically significant differences” and the Maximum pupil diameter [1, 9] was 8.8 mm. The “Mean change in pupil diameter” value [1, 9] was 0.00 mm, the Mean pupil diameter [1, 9] was 7.72 mm and the Minimum pupil diameter [1, 9] was 5.6 mm. The Maximum pupil diameter [1, 10] was 8.3 mm, the “Mean change in pupil diameter” value [1, 10] was −0.29 mm and the Mean pupil diameter [1, 10] was 7.41 mm. For the same compound, the Minimum pupil diameter [1, 10] was 5.5 mm, the Maximum pupil diameter [1, 11] was 8.4 mm and the “Mean change in pupil diameter” value [1, 11] was −0.64 mm. The Mean pupil diameter [1, 11] was 7.05 mm, the Minimum pupil diameter [1, 11] was 5.0 mm and the Maximum pupil diameter [1, 12] was 8.1 mm. The “Mean change in pupil diameter” value [1, 12] was −0.74 mm, the Mean pupil diameter [1, 12] was 7.01 mm and the Minimum pupil diameter [1, 12] was 5.0 mm. The Maximum pupil diameter [1, 13] was 8.6 mm, the “Mean change in pupil diameter” value [1, 13] was −0.74 mm and the Mean pupil diameter [1, 13] was 7.01 mm. For the same compound, the Minimum pupil diameter [1, 13] was 4.8 mm, the “Range of pupil diameters” value ([1]; 0.4% (w/v) solution, Baseline) was 5.8-8.6 mm and the Maximum pupil diameter [1, 14] was 8.6 mm. For the same compound, the Mean pupil diameter [1, 14] was 7.7 mm and 7.71 mm, the Minimum pupil diameter [1, 14] was 5.8 mm and the Maximum pupil diameter [1, 15] was 9.2 mm. For the same compound, the “Mean change in pupil diameter” value [1, 15] was −0.10 mm, the Mean pupil diameter [1, 15] was 7.87 mm and the Minimum pupil diameter [1, 15] was 5.2 mm. The Maximum pupil diameter [1, 16] was 9.1 mm, the “Mean change in pupil diameter” value [1, 16] was −0.27 mm and the Mean pupil diameter [1, 16] was 7.69 mm. For the same compound, the Minimum pupil diameter [1, 16] was 5.1 mm, the Maximum pupil diameter [1, 17] was 8.7 mm and the “Mean change in pupil diameter” value [1, 17] was −0.66 mm. For the same compound, the Mean pupil diameter [1, 17] was 7.30 mm, the Minimum pupil diameter [1, 17] was 4.7 mm and the Maximum pupil diameter [1, 18] was 8.6 mm. For the same compound, the “Mean change in pupil diameter” value [1, 18] was −0.64 mm, the Mean pupil diameter [1, 18] was 7.32 mm and the Minimum pupil diameter [1, 18] was 5.5 mm. For the same compound, the Maximum pupil diameter [1, 19] was 8.7 mm, the “Mean change in pupil diameter” value [1, 19] was −0.56 mm and the Mean pupil diameter [1, 19] was 7.40 mm. The Minimum pupil diameter [1, 19] was 4.7 mm, the “Range of pupil diameters” value ([1]; 0.8% (w/v) solution, Baseline) was 4.6-9.3 mm and the Maximum pupil diameter [1, 20] was 9.3 mm. The Mean pupil diameter [1, 20] was 8.0 mm and 7.96 mm, the Minimum pupil diameter [1, 20] was 4.6 mm and the “mean pupil diameter compared to placebo (ad hoc Fisher's test)” value ([1]; any concentration (0.2%, 0.4%, 0.8% w/v), 2, 4 and 8 hours) was “significant differences”. The “Range of eye redness scores” value [2] was 0-1, the eye redness [2] was “modest increase in eye redness” and the “mean eye redness versus placebo” value [2] was “did not differ from placebo”. For the same compound, the “Range of eye redness scores” value ([2]; 30 min) was 0-1.
